What all share (assay type): functional
Test [1] concerns Pseudoperonospora cubensis. Briefly: Fungicidal activity against Pseudoperonospora cubensis assessed as cucumber downy mildew disease control at 2 ppm foliar application 24 hr before inoculation on upper surface of leaf by preventive manner.
The subject of test [2] is Thanatephorus cucumeris. The experiment in a line: Fungicidal activity against Thanatephorus cucumeris assessed as rice sheath blight disease control at 125 ppm foliar application for 24 hr before inoculation at 26 +- 2 measured after 5 days by preventive manner.
Test [3] concerns Podosphaera fuliginea. The experiment in a line: Fungicidal activity against Podosphaera fuliginea assessed as cucumber powdery mildew control under greenhouse at 7.8 ppm foliar application 24 hr before inoculation on upper surface of leaf at 23 +/- 2 degC by preventive manner.
Test [4] has as its system Thanatephorus cucumeris. Briefly: Fungicidal activity against Thanatephorus cucumeris assessed as rice sheath blight disease control at 7.8 ppm foliar application for 24 hr before inoculation at 26 +- 2 measured after 5 days by preventive manner.
The subject of test [5] is Podosphaera fuliginea. The experiment in a line: Fungicidal activity against Podosphaera fuliginea assessed as cucumber powdery mildew control under greenhouse at 2 ppm foliar application 24 hr before inoculation on upper surface of leaf at 23 +/- 2 degC by preventive manner.
Test [6] relates to Podosphaera fuliginea. Briefly: Fungicidal activity against Podosphaera fuliginea assessed as cucumber powdery mildew control under greenhouse at 31.3 ppm foliar application 24 hr before inoculation on upper surface of leaf at 23 +/- 2 degC by preventive manner.
Test [7] has as its system Pseudoperonospora cubensis. Briefly: Fungicidal activity against Pseudoperonospora cubensis assessed as cucumber downy mildew disease control at 31.3 ppm foliar application 24 hr before inoculation on upper surface of leaf by preventive manner.
The test system of test [8] is Pseudoperonospora cubensis. Briefly: Fungicidal activity against Pseudoperonospora cubensis assessed as cucumber downy mildew disease control at 7.8 ppm foliar application 24 hr before inoculation on upper surface of leaf by preventive manner.
The subject of test [9] is Thanatephorus cucumeris. The experiment in a line: Fungicidal activity against Thanatephorus cucumeris assessed as rice sheath blight disease control at 31.3 ppm foliar application for 24 hr before inoculation at 26 +- 2 measured after 5 days by preventive manner.
Test [10] relates to Thanatephorus cucumeris. The experiment in a line: Fungicidal activity against Thanatephorus cucumeris assessed as rice sheath blight disease control at 2 ppm foliar application for 24 hr before inoculation at 26 +- 2 measured after 5 days by preventive manner.
Test [11] has as its system Pseudoperonospora cubensis. Briefly: Fungicidal activity against Pseudoperonospora cubensis assessed as cucumber downy mildew disease control at 125 ppm foliar application 24 hr before inoculation on upper surface of leaf by preventive manner.
For test [12], the system named is Podosphaera fuliginea. Briefly: Fungicidal activity against Podosphaera fuliginea assessed as cucumber powdery mildew control under greenhouse at 125 ppm foliar application 24 hr before inoculation on upper surface of leaf at 23 +/- 2 degC by preventive manner.
The test system of test [13] is Pyricularia oryzae. Briefly: Fungicidal activity against Magnaporthe oryzae assessed as rice blast disease control at 0.16 ppm submerged application measured after 7 days.
Test [14] concerns Pyricularia oryzae. Briefly: Fungicidal activity against Magnaporthe oryzae assessed as rice blast disease control at 0.63 ppm submerged application measured after 7 days.
Test [15] relates to Pyricularia oryzae. The experiment in a line: Fungicidal activity against Magnaporthe oryzae assessed as rice blast disease control at 2.5 ppm submerged application measured after 7 days.
Test [16] deals with Pyricularia oryzae. The experiment in a line: Fungicidal activity against Magnaporthe oryzae assessed as rice blast disease control at 10 ppm submerged application measured after 7 days.
Test [17] has as its system Podosphaera fuliginea. Briefly: Fungicidal activity against Podosphaera fuliginea assessed as cucumber powdery mildew control under greenhouse at 31.3 ppm foliar application 24 hr after inoculation on upper surface of leaf at 23 +/- 2 degC by curative manner.
Test [18] concerns Podosphaera fuliginea. The experiment in a line: Fungicidal activity against Podosphaera fuliginea assessed as cucumber powdery mildew control under greenhouse at 7.8 ppm foliar application 24 hr after inoculation on upper surface of leaf at 23 +/- 2 degC by curative manner.
Test [19] has as its system Podosphaera fuliginea. Briefly: Fungicidal activity against Podosphaera fuliginea assessed as cucumber powdery mildew control under greenhouse at 125 ppm foliar application 24 hr after inoculation on upper surface of leaf at 23 +/- 2 degC by curative manner.
Test [20] has as its system Podosphaera fuliginea. Briefly: Fungicidal activity against Podosphaera fuliginea assessed as cucumber powdery mildew control under greenhouse at 2 ppm foliar application 24 hr after inoculation on upper surface of leaf at 23 +/- 2 degC by curative manner.

The structures appear in SMILES notation.

With `CNC(=O)/C(=N/OC)c1ccccc1COc1ccccc1`, the Activity in [1] is <70%; in [2] it was <70%; in [3] it was 70%; in test [4] it was <70%; in test [5], 70%; in [6], 70%. The Activity in test [7] was <70%; in test [8], <70%; in test [9], <70%; in test [10], <70%; in test [11] it was <70%; in [12] it was 70%.
For `CNC(=O)/C(=N/OC)c1ccccc1Oc1cccc(O)c1`, the Activity in [1] was <70%; in [2] it was 70%; in test [3] it was <70%; in [4], 70%; in test [13], 50%; in test [14], 50%. In addition, the Activity in test [5] is listed as <70%; in [6] it was <70%; in [7], <70%; in test [8], <70%; in [9] it was 70%; in test [10], 70%. Also, the Activity is recorded as <70% in test [11], 50% in test [15], 50% in test [16] and <70% in test [12].
As for `CNC(=O)/C(=N/OC)c1ccccc1Oc1ccc(Oc2ccccc2)cc1`, the Activity is given as 50% in test [17]; 50% in [18]; <70% in test [1]; 70% in test [2]; 70% in test [3]; 70% in test [4]. Moreover, the Activity in test [19] turned out to be 50%; in [13], 50%; in test [14], 50%; in test [20], 50%; in test [5], 70%; in test [6], 70%. Also, the Activity in test [7] was <70%; in test [8], <70%; in test [9], 70%; in test [10], 70%; in test [11], <70%; in [15], 50%. Moreover, the Activity in test [16] was determined as 50%; in [12], 70%.
Take `CNC(=O)/C(=N/OC)c1ccccc1Oc1cccc(OCC#N)c1`: the Activity is 50% in test [17]; 50% in test [18]; <70% in test [1]; <70% in [2]; 70% in [3]; <70% in test [4]. Besides, the Activity in test [19] is reported as 50%; in test [13], <50%; in test [14], <50%; in test [20], 50%; in test [5], 70%; in [6] it was 70%. Also, the Activity is <70% in test [7]; <70% in test [8]; <70% in test [9]; <70% in test [10]; <70% in test [11]; <50% in test [15]. The values for the Activity in test [16] and in test [12] were <50% and 70%, respectively.
Regarding `CNC(=O)/C(=N/OC)c1ccccc1Oc1ccc(C(C)C)cc1C(C)C`, the Activity in [17] is 50%; in test [18], 50%; in test [1], <70%; in [2], 70%; in test [3], 70%; in test [4], 70%. Moreover, the Activity in test [19] is given as 50%; in test [13], 50%; in test [14] it was 50%; in [20], 50%; in test [5], 70%; in [6], 70%. The Activity was <70% in [7]; <70% in test [8]; 70% in test [9]; 70% in test [10]; <70% in test [11]; 50% in test [15]. Also, the Activity in [16] was determined as 50%; in test [12], 70%.
As for `CCO/N=C(/C(=O)NC)c1ccccc1Oc1ccccc1`, the Activity in test [1] was <70%; in test [2], <70%; in [3], 70%; in test [4] it was <70%; in [5] it was 70%; in test [6], 70%. Also, the Activity in [7] was <70%; in test [8] it was <70%; in [9], <70%; in test [10], <70%; in [11], <70%; in test [12] it was 70%.
In the case of `CNC(=O)/C(=N/OC(C)C)c1ccccc1Oc1ccccc1`, the Activity in test [1], in test [2], in test [3], in test [4], in test [5] and in test [6] was <70% in each case. For the same compound, the Activity in [7], in test [8], in test [9], in [10], in test [11] and in test [12] was <70% each time.
For `CNC(=O)/C(=N/O)c1ccccc1Oc1ccccc1`, the Activity in [1], in test [2], in [3], in test [4], in test [5] and in test [6] was <70% each time. The Activity in [7], in test [8], in test [9], in [10], in test [11] and in [12] was <70% throughout.
As to `CNC(=O)/C(=N/OC)c1ccc(Oc2ccccc2)cc1`, the Activity in [1] is <70%; in test [2], <70%; in [3], 70%; in [4], <70%; in test [5], 70%; in test [6], 70%. The Activity in [7] is on record as <70%; in [8], <70%; in test [9], <70%; in test [10] it was <70%; in test [11], <70%; in [12] it was 70%.
On to `CNC(=O)/C(=N/OC)c1ccccc1/C=C/c1ccccc1`, for which the Activity in test [1] is given as 70%; in test [2] it was <70%; in [3], 70%; in test [4], <70%; in test [5], 70%; in [6] it was 70%. Also, the Activity in test [7] is reported as 70%; in test [8], 70%; in test [9] it was <70%; in test [10], <70%; in test [11], 70%; in test [12] it was 70%.
As for `CNC(=O)/C(=N/OC)c1ccccc1CCc1ccccc1`, the Activity in [1] was <70%; in [2], <70%; in test [3] it was 70%; in test [4], <70%; in test [5] it was 70%; in [6], 70%. Further, the Activity in test [7] is <70%; in test [8], <70%; in [9] it was <70%; in [10], <70%; in [11], <70%; in [12] it was 70%.
As to `CNC(=O)/C(=N/OC)c1ccccc1C(=O)Oc1ccccc1`, the Activity in [1] is listed as <70%; in test [2] it was <70%; in [3], 70%; in test [4] it was <70%; in test [5], 70%; in [6], 70%. Also, the Activity in test [7] was <70%; in [8] it was <70%; in test [9] it was <70%; in test [10] it was <70%; in test [11] it was <70%; in test [12], 70%.

These data come from ChEMBL document CHEMBL3045600, “Synthesis and Fungicidal Activities of Phenoxyphenyl Alkoxyiminoacetamide Derivatives” (J Pestic Sci, 1998).
